Assay results reported in paper PMC2265467 (PLoS Genetics, 2008).

Key:
[1] = system: yeast expressing ExoS; assay: yeast growth recovery of yeast expressing ExoS; settings: CUP1 promoter; library screened at 50 µM
[2] = target: ExoS ADPRT activity (Pseudomonas aeruginosa, UniProt G3XDA1); assay: biochemical
[3] = target: ADPRT activity of ExoA (Pseudomonas aeruginosa, UniProt P11439); assay: biochemical
Chain of ADPRT activity of ExoA (P11439 26-638 limits assumed): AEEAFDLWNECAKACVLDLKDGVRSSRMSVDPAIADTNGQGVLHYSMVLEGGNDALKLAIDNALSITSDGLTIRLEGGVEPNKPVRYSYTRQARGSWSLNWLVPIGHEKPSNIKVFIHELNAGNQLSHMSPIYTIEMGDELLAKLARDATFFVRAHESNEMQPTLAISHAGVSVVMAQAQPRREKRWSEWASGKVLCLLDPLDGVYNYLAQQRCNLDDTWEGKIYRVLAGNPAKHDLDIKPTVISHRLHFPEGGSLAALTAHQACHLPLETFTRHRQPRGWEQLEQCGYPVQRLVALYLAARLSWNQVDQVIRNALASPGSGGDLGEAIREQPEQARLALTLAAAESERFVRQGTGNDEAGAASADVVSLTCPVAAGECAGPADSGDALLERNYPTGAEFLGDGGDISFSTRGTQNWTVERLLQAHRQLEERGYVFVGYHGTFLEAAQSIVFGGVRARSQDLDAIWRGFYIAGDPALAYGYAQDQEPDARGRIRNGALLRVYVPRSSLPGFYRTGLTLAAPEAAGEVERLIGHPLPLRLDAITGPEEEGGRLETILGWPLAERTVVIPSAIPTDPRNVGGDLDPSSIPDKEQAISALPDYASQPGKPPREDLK

Chain of ExoS ADPRT activity (G3XDA1 whole entry, looked up): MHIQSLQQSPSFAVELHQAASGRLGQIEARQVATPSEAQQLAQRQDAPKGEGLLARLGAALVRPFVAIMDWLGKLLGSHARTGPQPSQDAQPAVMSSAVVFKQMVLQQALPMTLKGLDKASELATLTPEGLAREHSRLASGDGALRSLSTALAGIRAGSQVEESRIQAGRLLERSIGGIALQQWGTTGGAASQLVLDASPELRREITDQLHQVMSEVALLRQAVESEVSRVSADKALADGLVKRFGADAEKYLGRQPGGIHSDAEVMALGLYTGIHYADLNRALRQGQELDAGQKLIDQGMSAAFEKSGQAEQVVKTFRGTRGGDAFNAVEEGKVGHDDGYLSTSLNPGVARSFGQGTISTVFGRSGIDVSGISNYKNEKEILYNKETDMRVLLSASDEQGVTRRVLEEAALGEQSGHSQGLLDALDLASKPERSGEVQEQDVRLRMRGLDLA

| SMILES | restoration of growth of yeast expressing ExoS (in words) [1] | IC50 [2] | IC50 [3] | Ki [2] | mode of inhibition of ExoS ADPRT [2] |
| --- | --- | --- | --- | --- | --- |
| COc1ccc(-c2cc(=O)c3c(O)cc(O[C@@H]4O[C@H](CO[C@@H]5O[C@@H](C)[C@H](O)[C@@H](O)[C@H]5O)[C@@H](O)[C@H](O)[C@H]4O)cc3o2)cc1O [Diosmin, reference compound] | restore yeast growth | 3 µM | – | – | – |
| CCC1CN(C(=O)Nc2cccc3c2CCCC3)c2ccccc2O1 (stereo not shown) [exosin-5340] | no protective effect | 129 µM | – | – | – |
| COc1cc(O)c(C(=O)/C=C/c2ccccc2)c(OC)c1 [Flavokawain B] | restore yeast growth | – | – | – | – |
| CCc1ccc(NC(=O)N2CC(CC)Oc3ccccc32)cc1 (stereo not shown) [exosin] | restore yeast growth | – | 17 µM | 33 ± 3 µM | competitive inhibitor |
| CCC1CN(C(=O)Nc2ccc(C)cc2)c2cc(Cl)ccc2O1 (stereo not shown) [exosin-5138] | – | 12 µM | – | – | – |
| COc1cc(C)c(C(=O)O)c(O)c1 [Everninic acid] | restore yeast growth | 21 µM | – | – | – |
| CCOC(=O)n1c(=O)oc2cc([N+](=O)[O-])ccc21 [0469-0796] | restore yeast growth | – | – | – | – |
| C=CCOC(=O)C1=C(C)NC(SCC(=O)Nc2nccs2)=C(C#N)C1c1cccs1 (stereo not shown) [4296-1011] | restore yeast growth | 6 µM | – | – | – |
| CCC1CN(C(=O)Nc2ccc(C)cc2)c2ccccc2O1 (stereo not shown) [exosin-5316] | – | 63 µM | – | – | – |
